The values below come from patent publication US20210060138A1 (priority 2019, published 2021).

Each structure is given as a SMILES string. In brackets after ≈: the same amount, converted by molar mass.

One experiment relates to HIV-1NL4-3-GFP-P2A-Nef. Briefly: ART and LASER ART drug cocktails at 5×EC90 in HIV-1 infected Jurkat T cell line. It counts as cell-based. The settings on record: Human immunodeficiency virus 1, Jurkat, read-out: 5×EC90 values. The protocol: FIGS. 6A-6C show the combined effect of ART and CRISPR/Cas9 on HIV-1 infection of Jurkat T cell line. FIG. 6A: Experimental design and procedure. Jurkat cells were infected with HIV-1NL4-3-GFP-P2A-Nef at multiplicity of infection (MOI) 0.001 and 0.01. […] At day 6 of infection the drugs were removed to allow efficient lentiviral transduction of Cas9 and gRNAs LTR A and LTR B which was conducted at day 7. At day 8 antiretrovirals were added back and continued for another 4 days. Twelve days after HIV-1 infection cells were collected, genomic DNA was extracted and analyzed by PCR for CRISPR-Cas9 mediated cleavage of viral LTR sequences. FIG. 6B: Quantification of the level of infection at day 7. Cells were fixed with 2% PFA and FACS analysis was performed to measure GFP expressing population for HIV infection/replication in vitro. FIG. 6C: Similar to FIG. 6B with exception that cells were treated with modified ART.
In vitro Infection: HEK-293T cells were transfected using CaPO4 precipitation method in the presence of chloroquine (50 μM) with 30 μg of pNL4-3-EGFP-P2A-Nef plasmid (13)/2.5×10^6 cells/100 mm dish. Next day, medium was replaced; and 24 h and 48 h later supernatants were collected, clarified at 3000 RPM for 10 minutes, filtered through 0.45 um filter, and concentrated by ultracentrifugation for 2 h with 20% sucrose cushion (25). Viral pellets were resuspended in HBSS by gentle agitation overnight, aliquoted, and tittered in Jurkat cells by FACS for GFP expression. Jurkat cells were infected by spinoculation for 1.5 h (26), 32° C. in 500 μl inoculum containing 8 μg/ml polybrene then resuspended and left for 4 h then 500 μl of growth medium was added. Next day, cells were washed 3 times with PBS and re-suspended in growth medium.
Broadly, the EC90 is the point of the concentration-response curve where the effect stands at 90%. For the compound `Cc1cc(/C=C/C#N)cc(C)c1Nc1ccnc(Nc2ccc(C#N)cc2)n1` [RPV, rilpivirine], the 90% effect concentration (EC90) came to 0.0033 µg/mL (≈ 0.00901 µM).
On to `Nc1nc(NC2CC2)c2ncn([C@H]3C=C[C@@H](CO)C3)c2n1` [ABC, abacavir], for which the EC90 stood at 8.3 µg/mL (≈ 29 µM).
On the same count and under the same terms, the value for `Nc1ccn([C@@H]2CS[C@H](CO)O2)c(=O)n1` [3TC, lamivudine] was 17.2 µg/mL (≈ 75 µM).
As to `C[C@@H]1CCO[C@H]2Cn3cc(C(=O)NCc4ccc(F)cc4F)c(=O)c(O)c3C(=O)N12` [DTG, dolutegravir], the EC90 was found to be 0.0111 µg/mL (≈ 0.0265 µM).

The experiment is the same for the next values; noted with them: concentration used in the cocktail, equal to 5×EC90.
For `CCCCCCCCCCCCCC(=O)Oc1c2n(cc(C(=O)NCc3ccc(F)cc3F)c1=O)C[C@@H]1OCC[C@@H](C)N1C2=O` [MDTG, myristoylated dolutegravir], the “5×EC90 values” came to 0.0167 µg/mL.
As for `CCCCCCCCCCCCCC(=O)OCC1OC(n2ccc(N)nc2=O)CS1` (stereo not shown) [M3TC, myristoylated lamivudine], the “5×EC90 values” was determined as 32.9 µg/mL.
For `CCCCCCCCCCCCCC(=O)OCC1C=CC(n2cnc3c(NC4CC4)nc(N)nc32)C1` (stereo not shown) [MABC, myristoylated abacavir], the “5×EC90 values” amounted to 14.4 µg/mL.
